Each compound was assayed against IDO (Homo sapiens, UniProt P14902) (assay: LLE_IDO_ABS_DR (IDO assay)).
IDO, sequence (P14902 whole entry): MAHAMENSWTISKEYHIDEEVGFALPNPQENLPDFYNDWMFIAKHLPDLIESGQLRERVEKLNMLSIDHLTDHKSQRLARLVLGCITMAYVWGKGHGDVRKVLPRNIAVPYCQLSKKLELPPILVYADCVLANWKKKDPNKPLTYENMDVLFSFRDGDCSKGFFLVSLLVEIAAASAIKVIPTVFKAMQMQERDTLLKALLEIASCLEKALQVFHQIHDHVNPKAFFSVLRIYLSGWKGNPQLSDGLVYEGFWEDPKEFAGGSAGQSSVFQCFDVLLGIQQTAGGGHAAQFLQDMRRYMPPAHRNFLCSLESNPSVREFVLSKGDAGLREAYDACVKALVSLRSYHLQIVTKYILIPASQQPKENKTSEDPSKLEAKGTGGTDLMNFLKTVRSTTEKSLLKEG

Row | SMILES | IC50 [nM]
1 | Cc1ccc(NC(=O)Nc2cc(-c3cc(F)ccc3C(=O)O)ccc2N(CCC(F)(F)F)Cc2ccc(Cl)cc2)cc1 [Example 15, 4′-((4-Chlorobenzyl)(3,3,3-trifluoropropyl)amino)-5-fluoro-3′-(3-(p-tolyl)ureido)-[1,1′-biphenyl]-2-carboxylic acid] | 90
2 | Cc1ccc(NC(=O)Nc2cc(-c3ccccc3C(=O)O)ccc2N(CCC(F)(F)F)Cc2ccccc2Cl)cc1 [Example 17, 4′-((2-Chlorobenzyl)(3,3,3-trifluoropropyl)amino)-3′-(3-(p-tolyl)ureido)-[1,1′-biphenyl]-2-carboxylic acid] | 270
3 | Cc1ccc(NC(=O)Nc2cc(-c3cc(F)ccc3C(=O)O)ccc2N(CCC(F)(F)F)Cc2ccccc2Cl)cc1 [Example 18, 4′-((2-Chlorobenzyl)(3,3,3-trifluoropropyl)amino)-5-fluoro-3′-(3-(p-tolyl)ureido)-[1,1′-biphenyl]-2-carboxylic acid] | 630
4 | Cc1ccc(NC(=O)Nc2cc(-c3ccccc3C(=O)O)ccc2N(Cc2ccccc2)CC(F)F)cc1 [Example 20, 4′-(Benzyl(2,2-difluoroethyl)amino)-3′-(3-(p-tolyl)ureido)-[1,1′-biphenyl]-2-carboxylic acid] | 130
5 | Cc1ccc(NC(=O)Nc2cc(-c3cc(F)ccc3C(=O)O)ccc2N(Cc2ccccc2)CC(F)F)cc1 [Example 21, 4′-(Benzyl(2,2-difluoroethyl)amino)-5-fluoro-3′-(3-(p-tolyl)ureido)-[1,1′-biphenyl]-2-carboxylic acid] | 150
6 | C#CCN(CC(C)C)c1ccc(-c2cc(F)ccc2C(=O)O)cc1NC(=O)Nc1ccc(C)cc1 [Example 23, 5-Fluoro-4′-(isobutyl(prop-2-yn-1-yl)amino)-3′-(3-(p-tolyl)ureido)-[1,1′-biphenyl]-2-carboxylic acid] | 450
7 | Cc1ccc(NC(=O)Nc2c(N(CC(C)C)CC(C)C)ccc(-c3ccccc3-c3nnn[nH]3)c2F)cc1 [Example 25, 1-(4-(Diisobutylamino)-2-fluoro-2′-(1H-tetrazol-5-yl)-[1,1′-biphenyl]-3-yl)-3-(p-tolyl)urea] | 30
8 | Cc1ccc(NC(=O)Nc2c(N(CC(C)C)CC(C)C)ccc(-c3ccccc3C(=O)O)c2F)cc1 [Example 26, 4′-(Diisobutylamino)-2′-fluoro-3′-(3-(p-tolyl)ureido)-[1,1′-biphenyl]-2-carboxylic acid] | 370

Second part, the compound after the results:

Row | IC50 [nM] | SMILES
9 | 30 | Cc1ccc(NC(=O)Nc2cc(-c3ccccc3-c3nnn[nH]3)ccc2N(Cc2ccccc2)CC(F)F)cc1 [Example 22, 1-(4-(Benzyl(2,2-difluoroethyl)amino)-2′-(1H-tetrazol-5-yl)-[1,1′-biphenyl]-3-yl)-3-(p-tolyl)urea]
10 | 10 | C#CCN(CC(C)C)c1ccc(-c2ccccc2-c2nnn[nH]2)cc1NC(=O)Nc1ccc(C)cc1 [Example 24, 1-(4-(Isobutyl(prop-2-yn-1-yl)amino)-2′-(1H-tetrazol-5-yl)-[1,1′-biphenyl]-3-yl)-3-(p-tolyl)urea]
11 | 2.55 | Cc1ccc(NC(=O)Nc2cc(-c3ccccc3-c3nnn[nH]3)ccc2N(CC(C)C)CC(C)CC(F)(F)F)cc1 (stereo not shown) [Example 27, 1-(4-(Isobutyl(4,4,4-trifluoro-2-methylbutyl)amino)-2′-(1H-tetrazol-5-yl)-[1,1′-biphenyl]-3-yl)-3-(p-tolyl)urea]
12 | 10 | Cc1ccc(NC(=O)Nc2cc(-c3ccccc3C(=O)O)ccc2N(CC(C)C)CC(C)CC(F)(F)F)cc1 (stereo not shown) [Example 28, 4′-(Isobutyl(4,4,4-trifluoro-2-methylbutyl)amino)-3′-(3-(p-tolyl)ureido)-[1,1′-biphenyl]-2-carboxylic acid]
13 | 4.76 | [2H]C([2H])(C(C)C)N(c1ccc(-c2ccccc2-c2nnn[nH]2)cc1NC(=O)Nc1ccc(C)cc1)C1CCCCC1 [Example 29, 1-(4-(Cyclohexyl(1,1-dideutero-2-methylpropyl)amino)-2′-(1H-tetrazol-5-yl)biphenyl-3-yl)-3-p-tolylurea]
